Experimental data from ChEMBL document CHEMBL1201862, “PubChem BioAssay data set” (2004).
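Where inhibition never reached the appropriate level, the endpoint shown equals the highest concentration tested. Otherwise, values were interpolated linearly from a five-concentration, 48-hour dose response in 96-well plates. The concentration for 50% growth inhibition is given as GI50.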 The source made the active and inactive calls. Cut-off read from the data, not from the text of the source: active = GI50 up to about 1.1 µM and inactive = higher.

Columns and labels:
Experiment in all cases: inhibition of tumour cell growth, NCI panel, 48 h
[1] = test system: SF-539
[2] = test system: IGROV-1
[3] = test system: NCI-H226
[4] = test system: RXF 393
[5] = test system: OVCAR-5
[6] = test system: UACC-62
[7] = test system: SK-OV-3
[8] = test system: HOP-92
[9] = test system: UACC-257
[10] = test system: SF-268
[11] = test system: HL-60
[12] = test system: SN12C
[13] = test system: CAKI-1
[14] = test system: KM12
[15] = test system: A498
[16] = test system: MOLT-4

Row | SMILES | GI50 [1] | GI50 [2] | GI50 [3] | GI50 [4] | GI50 [5] | GI50 [6] | GI50 [7] | GI50 [8] | GI50 [9] | GI50 [10] | GI50 [11] | GI50 [12] | GI50 [13] | GI50 [14] | GI50 [15] | GI50 [16]
1 | O=[N+]([O-])c1c(/C=N/Nc2ccccc2)oc(-c2ccc3c(c2)OCO3)c1-c1ccc2c(c1)OCO2 | 3.16 µM (inactive) | 6.14 µM (inactive) | > 100 µM (inactive) | 36.5 µM (inactive) | 5.79 µM (inactive) | 3.19 µM (inactive) | 30.5 µM (inactive) | 19.8 µM (inactive) | 30.3 µM (inactive) | 3.93 µM (inactive) | 4.57 µM (inactive) | 64.3 µM (inactive) | 8.22 µM (inactive) |  |  | 
2 | CC1(C)S[C@H](c2ccccc2C(=O)O)N[C@@H]1CC(=O)O | > 100 µM (inactive) | > 100 µM (inactive) | > 100 µM (inactive) | > 100 µM (inactive) |  | > 100 µM (inactive) |  |  | > 100 µM (inactive) | > 100 µM (inactive) | > 100 µM (inactive) | > 100 µM (inactive) |  | > 100 µM (inactive) | > 100 µM (inactive) | > 100 µM (inactive)
3 | O=C(/C=C/c1ccccc1Cl)c1ccccc1Cl | 17.6 µM (inactive) | 17.3 µM (inactive) | 45.9 µM (inactive) |  | 21.1 µM (inactive) | 16.7 µM (inactive) | 72.6 µM (inactive) | 17.1 µM (inactive) | 19.8 µM (inactive) | 23.4 µM (inactive) | 22.4 µM (inactive) | 20.6 µM (inactive) | 17.6 µM (inactive) | 15.5 µM (inactive) | 49.1 µM (inactive) | 23.8 µM (inactive)
4 | Cc1cnc2c(c1)C(=O)C1=C(OC(C)(C)CC1O)C2=O (centres undefined) | 16.4 µM (inactive) | 15.2 µM (inactive) | 20.1 µM (inactive) | 15.5 µM (inactive) | > 100 µM (inactive) | 3.79 µM (inactive) | 18.9 µM (inactive) | 16.7 µM (inactive) | 13.3 µM (inactive) | 14.9 µM (inactive) | 4.45 µM (inactive) | 15.6 µM (inactive) |  | > 100 µM (inactive) |  | 15.9 µM (inactive)
5 | NC1=C(NC(=O)Cc2ccc(F)cc2)C(=O)c2ccccc2C1=O | > 78 µM (inactive) | 23.4 µM (inactive) | > 50.4 µM (inactive) | 24.6 µM (inactive) | > 100 µM (inactive) | 36.4 µM (inactive) | 19.4 µM (inactive) | 23.8 µM (inactive) | 79.3 µM (inactive) | 39.7 µM (inactive) | 35.1 µM (inactive) | > 100 µM (inactive) | > 100 µM (inactive) | > 76.9 µM (inactive) |  | > 67.9 µM (inactive)
6 | COC(=O)C1Cc2c([nH]c3ccccc23)C(c2ccccc2O)N1 (centres undefined) | 34.1 µM (inactive) | 33.8 µM (inactive) | > 100 µM (inactive) |  | > 100 µM (inactive) | 35.4 µM (inactive) | > 100 µM (inactive) | > 100 µM (inactive) | 84.1 µM (inactive) |  | 28.5 µM (inactive) | 55.2 µM (inactive) | 98.6 µM (inactive) | 60.3 µM (inactive) | 21.3 µM (inactive) | 41.9 µM (inactive)
7 | c1ccc(C2=NN3CN(N2)c2ccccc2OCCCOc2ccccc23)cc1 | > 100 µM (inactive) | > 100 µM (inactive) | > 100 µM (inactive) | > 100 µM (inactive) | > 100 µM (inactive) | > 100 µM (inactive) |  |  |  | > 100 µM (inactive) | 48.9 µM (inactive) | > 100 µM (inactive) |  | > 100 µM (inactive) |  | 63.8 µM (inactive)
8 | O=C(/C=C1\Nc2ccccc2C(=O)N1c1ccc(Cl)cc1)c1ccncc1 |  |  | > 100 µM (inactive) |  | > 100 µM (inactive) | > 100 µM (inactive) | > 100 µM (inactive) | > 100 µM (inactive) | > 100 µM (inactive) | > 100 µM (inactive) | > 100 µM (inactive) | > 100 µM (inactive) | > 100 µM (inactive) | > 100 µM (inactive) | 75.7 µM (inactive) | > 100 µM (inactive)
9 | O=C(c1ccccc1)C1CCCCN1C(=O)c1ccccc1 (centres undefined) | > 100 µM (inactive) | > 100 µM (inactive) | > 100 µM (inactive) | > 100 µM (inactive) |  | 25.7 µM (inactive) | > 100 µM (inactive) |  | > 100 µM (inactive) | > 100 µM (inactive) | > 100 µM (inactive) | > 100 µM (inactive) | > 100 µM (inactive) | > 100 µM (inactive) | > 100 µM (inactive) | > 100 µM (inactive)
10 | N#CC1C(C#N)C2(c3ccccc3)C(c3ccccc3)=NN(c3ccccc3)CC12 (centres undefined) | > 100 µM (inactive) | > 100 µM (inactive) | > 100 µM (inactive) | > 100 µM (inactive) | > 100 µM (inactive) | 94.8 µM (inactive) |  |  | > 100 µM (inactive) |  | > 100 µM (inactive) | > 100 µM (inactive) | > 100 µM (inactive) | > 100 µM (inactive) | > 100 µM (inactive) | 16.8 µM (inactive)
11 | CC(C)(C)c1cc(C(=O)O)c2c(c1)C(=O)OC2(c1ccccc1)c1ccccc1C(=O)O (centres undefined) | > 100 µM (inactive) |  | 23.9 µM (inactive) | > 100 µM (inactive) | > 100 µM (inactive) | > 100 µM (inactive) | 0.0611 µM (active) | > 100 µM (inactive) | > 100 µM (inactive) | > 100 µM (inactive) | > 100 µM (inactive) | > 100 µM (inactive) | > 100 µM (inactive) | > 100 µM (inactive) |  | > 100 µM (inactive)
12 | Cc1nc2ccccc2c(=O)n1/N=C(\N=N\c1ccccc1Cl)c1ccccc1 | 18.7 µM (inactive) | 19.4 µM (inactive) |  | 23 µM (inactive) |  | 17.5 µM (inactive) | 31 µM (inactive) | 36.5 µM (inactive) |  | 46.3 µM (inactive) | 15.3 µM (inactive) |  | 23.4 µM (inactive) |  | 27.5 µM (inactive) | > 10 µM (inactive)
13 | CC(C)(C)OC(=O)N1N=NC2C3OC(CC3=O)C21 (centres undefined) | > 100 µM (inactive) | > 100 µM (inactive) | 2.8 µM (inactive) | > 10 µM (inactive) | > 100 µM (inactive) | > 100 µM (inactive) | 18.6 µM (inactive) | > 100 µM (inactive) | > 100 µM (inactive) | > 100 µM (inactive) |  | > 100 µM (inactive) | > 100 µM (inactive) | > 10 µM (inactive) | > 100 µM (inactive) | > 100 µM (inactive)
14 | O=C(OCC1CO1)c1cccs1 (centres undefined) |  | > 100 µM (inactive) |  | > 100 µM (inactive) | > 100 µM (inactive) | > 100 µM (inactive) | > 100 µM (inactive) | 65.6 µM (inactive) | > 100 µM (inactive) | > 100 µM (inactive) | > 100 µM (inactive) | > 100 µM (inactive) | > 100 µM (inactive) | > 100 µM (inactive) |  | > 100 µM (inactive)
15 | CC1=C(C(=O)Nc2ccccc2)C(c2cc(Cl)cc(Cl)c2)C(C(=O)Nc2ccccc2)=C(C)N1 | 14.8 µM (inactive) | 16.1 µM (inactive) | 15.1 µM (inactive) | 12.9 µM (inactive) | 19.4 µM (inactive) | 3.94 µM (inactive) | 36.8 µM (inactive) |  | 12.3 µM (inactive) | 9.79 µM (inactive) | 1.78 µM (inactive) | 10.8 µM (inactive) | 12.1 µM (inactive) | 2.92 µM (inactive) | 22.6 µM (inactive) | 3.54 µM (inactive)
16 | CSc1ccc(C2OC(=O)c3ccccc32)c2ccccc12 (centres undefined) | > 100 µM (inactive) | 98.9 µM (inactive) |  | > 100 µM (inactive) | > 100 µM (inactive) | 54.3 µM (inactive) | > 100 µM (inactive) | 49 µM (inactive) | > 100 µM (inactive) | > 100 µM (inactive) | 61.2 µM (inactive) | > 100 µM (inactive) | 80.7 µM (inactive) | 78 µM (inactive) |  | 32.3 µM (inactive)
17 | O=C1C2C=CC(C2)C(c2ccc(O)cc2)N1O (centres undefined) |  | > 100 µM (inactive) | > 100 µM (inactive) |  | > 100 µM (inactive) | > 100 µM (inactive) | > 100 µM (inactive) | > 100 µM (inactive) | > 100 µM (inactive) | > 100 µM (inactive) | > 100 µM (inactive) | > 100 µM (inactive) | > 100 µM (inactive) | > 100 µM (inactive) | > 100 µM (inactive) | > 100 µM (inactive)
18 | CNC(=S)NNC(=O)c1c(C)nc2sccn12 | > 100 µM (inactive) | > 100 µM (inactive) | > 100 µM (inactive) | > 100 µM (inactive) | > 100 µM (inactive) | > 100 µM (inactive) | > 100 µM (inactive) | > 100 µM (inactive) | > 100 µM (inactive) | > 100 µM (inactive) | > 100 µM (inactive) | > 100 µM (inactive) | > 100 µM (inactive) | > 100 µM (inactive) |  | > 100 µM (inactive)
19 | COC(=O)[C@@]12C3=NO[C@]1(C(=O)OC)C(O[Si](C)(C)C(C)(C)C)[C@H]1OC(C)(C)O[C@H]1[C@@H]2C(OCc1ccccc1)CC3 (some centres undefined) | 59.2 µM (inactive) | 42.7 µM (inactive) | 88.7 µM (inactive) |  |  | 41.7 µM (inactive) | 25.6 µM (inactive) | 2.75 µM (inactive) |  |  | 6.49 µM (inactive) | 89.7 µM (inactive) |  | 28.3 µM (inactive) | 38.3 µM (inactive) | 9.66 µM (inactive)
20 | Cn1cnc([N+](=O)[O-])c1Sc1nc2ccccc2s1 | 12.5 µM (inactive) | 11.9 µM (inactive) | 9.84 µM (inactive) | 2.15 µM (inactive) | 14.6 µM (inactive) | 11.9 µM (inactive) | 15.5 µM (inactive) | 2.77 µM (inactive) |  | 7.19 µM (inactive) |  | 4.33 µM (inactive) | 1.57 µM (inactive) | 15.1 µM (inactive) |  | 1.89 µM (inactive)
